For data set [1] the following is noted: in vivo. An excerpt: Birds in the C+ group are fed a standard commercial diet which contains several carotenoids; this diet also contains synthetic alpha-tocopherol (Vitamin E) as an additive.
The conditions of data set [2]: macular degeneration; cited from earlier work.
The conditions of data set [3]: cited from earlier work.
The conditions of data set [4]: of all known carotenoids; cited from earlier work.
Data set [5] is described as follows: Pasteurization of cell culture by heating. The data set is classed as physicochemical. To be noted: stabilizers added.
Procedure: After the stabilizing compounds are added, a bacterial cell culture can be pasteurized by heating to 55° C. for 25 minutes.
After the stabilizing compounds are added, the cell culture is pasteurized by heating to 55° C. for 25 to 50 minutes.
Data set [6] is described as follows: Feeding of F. multivorum cell paste to birds or fish. It is filed as in vivo. The note with it: cell paste fed directly. An excerpt: Although this option has not yet been fully evaluated, it is possible that the Flavobacterium multivorum cells themselves, in intact form and possibly even in a viable state, may be suitable for direct ingestion by humans. A substantial number of human foods (including cheese, yogurt, beer, etc.) contain viable or killed-but-intact microbial cells, and there is no known pathogenicity associated with the F. multivorum cells isolated by Applied Food Biotechnology, Inc. They were isolated from a relatively cold artesian waterway, and since they are adapted to living in cold water, they cannot survive or reproduce well at temperatures inside the human body. […] When fed directly in the form of a cell paste to animals such as birds or fish, these cells appear to be well-suited as delivery vehicles for zeaxanthin.

For another data set, the system named is chickens. The note with it: cited from earlier work.
The conditions of data set [7]: per-weight basis; cited from earlier work.

Here are results for 9 compounds from US5854015A, “Method of making pure 3R-3'R stereoisomer of zeaxanthin for human ingestion” (priority 1995, dated 1998).

SMILES strings stand for the structures.

As for `CC(C=CC=C(C)C=CC1=C(C)CCCC1(C)C)=CC=CC=C(C)C=CC=C(C)C=CC1C(C)=CC(O)CC1(C)C` (stereo not drawn) [alpha-Cryptoxanthan], the Concentration in retina in data set [1] worked out at 1.4 ng per mg retina.

In data set [1], `CC1=C(/C=C/C(C)=C/C=C/C(C)=C/CO)C(C)(C)CCC1` [Retinol (Vit. A)] had a Concentration in retina of 5.8 ng per mg retina. The “benefits in the retina” value in data set [2] is listed as “very limited”.

In data set [1], `CC1=C(/C=C/C(C)=C/C=C/C(C)=C/C=C/C=C(C)/C=C/C=C(C)/C=C/C2=C(C)C(=O)CCC2(C)C)C(C)(C)CCC1=O` [Canthaxanthin] yielded a Concentration in retina of 1.7 ng per mg retina. In data set [3] (in vivo), the “crystal formation in retinal tissue” value is “can cause crystal formation which can destroy retinal cells and tissue”; the “deposition in human skin” value is listed as “is deposited in human skin”; the “displacement of lutein in retinal tissue” value was “can displace lutein”. The retinal toxicity entry in data set [3] (ingested) is “shown to cause retinal maculopathy”.

Regarding `CC(C)=CCC/C(C)=C/C=C/C(C)=C/C=C/C(C)=C/C=C/C=C(C)/C=C/C=C(C)/C=C/C=C(\C)CCC=C(C)C` [lycopene], the singlet oxygen quenching entry in data set [4] is given as “best singlet oxygen quencher of all known carotenoids”.

The compound `Cc1c(C)c2c(c(C)c1O)CCC(C)(CCCC(C)CCCC(C)CCCC(C)C)O2` (stereo not drawn) [alpha-Tocopherol] registered a Concentration in retina in data set [1] of 15.6 ng per mg retina. Further, the “benefits in the retina” value in data set [2] was “very limited”.

In turn, `CC1=C(/C=C/C(C)=C/C=C/C(C)=C/C=C/C=C(C)/C=C/C=C(C)/C=C/C2=C(C)C[C@@H](O)CC2(C)C)C(C)(C)C[C@H](O)C1` [zeaxanthin, 3,3'-dihydroxy-β-β-carotene] yielded a Concentration in retina in data set [1] of 4.7 ng per mg retina. Besides, the “damage to zeaxanthin on pasteurization” value in data set [5] (55° C. for 25 to 50 minutes) and in data set [5] (55° C. for 25 minutes) was “without damaging the zeaxanthin” each time. Besides, the “absorption and tissue deposition after feeding” value in data set [6] is “absorbed into the bloodstream and deposited into various tissues at expected and appropriate tissue locations”. For the same compound, the “coloration of chickens fed cells and their zeaxanthin pigment” value in the data set with chickens (cells ATCC 21081 and 21588, U.S. Pat. No. 3,891,504) is listed as “caused suitable coloration”. For the same compound, the “coloring potency relative to lutein” value in the data set with chickens (per-weight basis, skin and egg yolks) is 2-3 times. The “effectiveness in imparting color relative to lutein” value in data set [7] is given as “several times more effective”.

`CC1=C[C@H](O)CC(C)(C)[C@H]1/C=C/C(C)=C/C=C/C(C)=C/C=C/C=C(C)/C=C/C=C(C)/C=C/C1=C(C)C[C@@H](O)CC1(C)C` [Lutein]: in data set [1], the Concentration in retina amounted to 1.0 ng per mg retina.

In the case of `CC1=C(/C=C/C(C)=C/C=C/C(C)=C/C=C/C=C(C)/C=C/C=C(C)/C=C/C2=C(C)CCCC2(C)C)C(C)(C)CCC1` [β-Carotene], in data set [1], the “Detection of β-Carotene in retinas” value is “No β-Carotene was detected”. Also, in data set [2], the “benefits in the retina” value is on record as “very limited”.

`Cc1c(O)cc2c(c1C)O[C@](C)(CCC[C@H](C)CCC[C@H](C)CCCC(C)C)CC2` [gamma-Tocopherol] returned a Concentration in retina in data set [1] of 5.0 ng per mg retina.
